Reference: patent US20070237885A1, “PROCESS FOR THE ISOLATION OF LIMONOID GLUCOSIDES FROM CITRUS” (THE TEXAS A & M UNIVERSITY SYSTEM, priority 2006, published 2007)

Legend:
cancer cells = test: Inhibition of cancer cells in cell culture models; assay type: cell-based
Source text: (§1) Limon glucoside is a triterpene derivative, in which aglycone part is linked to a glucose moiety, and it is water-soluble. Citrus plants containing the above-named limonoid glucoside derivatives belong to the Rutaceae family, and include, for example, Citrus paradisi and Citrus aurantium. The fresh fruits of Citrus paradisi (Rio Red grapefruit) and Citrus aurantium (sour orange) are currently produced in large amounts as acidulants for preparing juice and pickles in various parts of the World, and thus are readily available sources for extraction of limonoid glucosides. A method or process for isolating limonoid glucosides in gram quantities was devised.

Anti-oxidant properties = test: Anti-oxidant properties
Source text: This offers potential advantages over the use of synthetic methods which require more complicated procedures to prepare pure limonoid compounds.

Water solubility = assay type: physicochemical
Source text: as §1

[1] = tested on: MDA-MB-435 oestrogen receptor-negative human breast cancer cells; settings: MDA-MB-435 cells; [3H] thymidine incorporation; cited from earlier work
[2] = tested on: DMBA-induced buccal pouch tumours; settings: hamsters; cited from earlier work
[3] = tested on: 7,12-dimethylbenz[a]anthracene (DMBA)-induced buccal pouch epidermoid carcinomas; settings: cited from earlier work; for incidence of DMBA-induced buccal pouch epidermoid carcinomas: female Syrian hamsters
[4] = tested on: azoxymethane (AOM)-induced aberrant crypt foci (ACF); settings: dietary intake; initiation and post-initiation feeding experiments; male F344 rats; cited from earlier work
[5] = tested on: benzo[a]pyrene-induced forestomach neoplasia; settings: mice; cited from earlier work

Molecule	inhibition of cancer cells (cancer cells)	anti-oxidant properties (Anti-oxidant properties)	IC50, inhibition of proliferation [1]	decrease of average tumour burden [2]	further results
CC1(C)O[C@H]2CC(=O)OC[C@]23[C@H]2CC[C@@](C)([C@@H](O[C@@H]4O[C@H](CO)[C@@H](O)[C@H](O)[C@H]4O)c4ccoc4)[C@@]4(O[C@@H]4C(=O)O)[C@]2(C)C(=O)C[C@@H]13 [Compound (2), limonin-17-β-D-glucopyanoside]	exhibited inhibition	exhibit anti-oxidant properties	75 µg/mL	effective	water solubility (Water solubility): water-soluble
CC1(C)O[C@H]2CC(=O)OC[C@]23[C@H]2CC[C@@]4(C)[C@H](c5ccoc5)OC(=O)[C@H]5O[C@]54[C@]2(C)C(=O)C[C@@H]13 [limonin]			12.5 µg/mL		incidence of DMBA-induced buccal pouch epidermoid carcinomas [3]: reduced the incidence; comparative inhibition of DMBA-induced neoplasia ([3]; limonin compared with nomilin): more effective inhibitor; formation of aberrant crypt foci (ACF) [4]: significantly inhibited
CC(=O)O[C@H]1CC(=O)OC(C)(C)[C@@H]2CC(=O)[C@]3(C)[C@H](CC[C@@]4(C)[C@H](c5ccoc5)OC(=O)[C@H]5O[C@]543)[C@@]12C [nomilin]			0.4 µg/mL		inhibition of benzo[a]pyrene-induced forestomach neoplasia [5]: inhibited; incidence of DMBA-induced buccal pouch epidermoid carcinomas [3]: reduced the incidence
CC1(C)OC(=O)C=C[C@]2(C)[C@H]3CC[C@@]4(C)[C@H](c5ccoc5)OC(=O)[C@H]5O[C@]54[C@]3(C)C(=O)C[C@@H]12 [obacunone]					formation of aberrant crypt foci (ACF) [4]: significantly inhibited
deacetyl nomilinic acid glucoside [Compound (3)]	exhibited inhibition	exhibit anti-oxidant properties			
isoobacunoic-17-β-D-glucopyranoside [Compound (1)]	exhibited inhibition	exhibit anti-oxidant properties			
nomilin 17-β-D-glucopyranoside [NG]				only LG was effective	
nomilinic acid 17-β-D-glucopyranoside [NAG]				only LG was effective	
